{"source": "patent US5587442A", "about": "“Polyglycomers” (priority 1994, dated 1996)", "key": {"[1]": {"target": "T1, concanavalin A (Con A) (Canavalia ensiformis, UniProt P02866)", "T1 construct": "purchased Calbiochem", "assay": "Inhibition of Con A induced erythrocyte agglutination (hemagglutination inhibition assay)", "type": "cell-based", "method": "To assess the activity of our polymers, we compared the ability of the polymer to inhibit erythrocyte agglutination by Con A with that of several controls including the monovalent carbohydrate derivative methyl-α-D-glucopyranoside and the divalent-glucose substituted 7-oxanorbornene 3.\nThe agglutination inhibition assays were performed according to standard protocols. (Osawa, et al., Methods Enzymol. 28:323-327, 1972.) The assay was as follows: Pure lyophilized Con A was dissolved in HEPES buffer with 100 mM CaCl2, pH 8.0, and dialyzed into phosphate buffered saline (PBS, 25 mM sodium phosphate, 0.15M NaCl), pH 7.2, for the assay. Protein solution concentration was estimated from UV absorbance measurements at 280 nm.\nRabbit red blood cells were stored as a 10% suspension in Alsever's solution and washed 3× with PBS before the assay. For the assay, the cells were pelleted and resuspended in PBS with 0.5% bovine serum albumin.\nPolymeric inhibitors were purified by precipitation or by gel filtration. The inhibition results obtained for compounds purified by either method were consistent. The minimum concentration of inhibitor required to inhibit four hemagglutinating doses of Con A was determined. After preincubation with the inhibitor, a 2% suspension of erythrocytes was added. The samples were examined for agglutination after 1 hour at room temperature.\nSubstrates were incubated with four agglutinating doses of Con A, prior to the addition of rabbit erythrocytes. The concentration of glucose moieties in solution required for inhibition was determined for each substrate within a two-fold dilution."}, "[2]": {"system": "E-selectin", "assay": "ELISA: inhibition of E-selectin-IgG binding to immobilized GlyCAM-1", "conditions": "compared among 8, 9, 10", "method": "(§1) The affinity of compounds 8, 9 and 10 for each selectin were tested in an ELISA assay that compares their ability to inhibit binding of the selectins to immobilized GlyCAM-1. Because all of the selectins bind to GlyCAM-1 (FIG. 4) this assay provides insight into the relative affinities and specificities of the identified GlyCAM-1 component for each selectin.\n(§2) The ELISAs were executed by the following protocol: An antibody to GlyCAM-1 was immobilized in a microtiter well. GlyCAM-1 was added. Selectin-IgG chimeras, which were biotinylated, were added to streptavidin-alkaline phosphatase conjugate. The binding of the selectin-IgGbiotin .cndot.strepavidin-alkaline phosphatase to GlyCAM-1 was monitored by UV. Para-nitrophenolate is produced from alkaline phosphatase catalyzed hydrolysis of paranitrophenolphosphate (Qed). The inhibitory effects of saccharides 8-10 on selectin-IgG binding to immobilized GlyCAM-1 were measured by this method."}, "[3]": {"target": "L-selectin", "assay": "ELISA: inhibition of L-selectin-IgG binding to immobilized GlyCAM-1", "method": "as §1, §2"}, "[4]": {"system": "P-selectin", "assay": "ELISA: inhibition of P-selectin-IgG binding to immobilized GlyCAM-1", "conditions": "compared among 8, 9, 10", "method": "as §1, §2"}, "[5]": {"system": "Con A", "conditions": "cited from earlier work"}, "[6]": {"conditions": "Table 2, four agglutinating doses of Con A, rabbit erythrocytes, 1 hour at room temperature, pH 7.2, within a two-fold dilution"}}, "data": [{"compound": "O=C(OCCC1OC(CO)C(O)C(O)C1O)C1C2C=CC(O2)C1C(=O)OCCC1OC(CO)C(O)C(O)C1O", "note": "(centres unmarked) [7-oxanorbornene 3]", "values": [{"measurement": "Inhibiting dose compared with methyl-α-D-glucopyranoside (in words)", "setting": "[1]", "value": "comparable"}, {"measurement": "Inhibiting Dose [carbohydrate residues]", "setting": "[1]; [6]", "value": 0.025, "unit": "M"}]}, {"compound": "CCCO[C@@H]1O[C@H](CO)[C@@H](O[C@@H]2O[C@@H](C)[C@@H](O)[C@@H](O)[C@@H]2O)[C@H](O[C@@H]2O[C@H](CO)[C@H](O)[C@H](OS(=O)(=O)O)[C@H]2O)[C@H]1O", "note": "[Compound 8]", "values": [{"measurement": "relative effectiveness in binding to E-selectin (in words)", "setting": "[2]", "value": "considerably more effective than the 6-sulfate 9 or the 3,6-disulfate 10"}, {"measurement": "IC50 for preventing L-selectin binding (in words)", "setting": "[3]", "value": "in the mmolar range"}, {"measurement": "relative effectiveness at blocking P-selectin binding (in words)", "setting": "[4]", "value": "the worst at blocking binding"}]}, {"compound": "CCCO[C@@H]1O[C@H](CO)[C@@H](O[C@@H]2O[C@@H](C)[C@@H](O)[C@@H](O)[C@@H]2O)[C@H](O[C@@H]2O[C@H](COS(=O)(=O)O)[C@H](O)[C@H](O)[C@H]2O)[C@H]1O", "note": "[Compound 9]", "values": [{"measurement": "IC50 for preventing L-selectin binding (in words)", "setting": "[3]", "value": "in the mmolar range"}, {"measurement": "relative effectiveness at blocking P-selectin binding (in words)", "setting": "[4]", "value": "slightly better"}]}, {"compound": "CCCO[C@@H]1O[C@H](CO)[C@@H](O[C@@H]2O[C@@H](C)[C@@H](O)[C@@H](O)[C@@H]2O)[C@H](O[C@@H]2O[C@H](COS(=O)(=O)O)[C@H](O)[C@H](OS(=O)(=O)O)[C@H]2O)[C@H]1O", "note": "[Compound 10]", "values": [{"measurement": "IC50 for preventing L-selectin binding (in words)", "setting": "[3]", "value": "in the mmolar range"}, {"measurement": "relative binding to L-selectin (in words)", "setting": "[3]; compared among 8, 9, 10", "value": "bound no more tightly to L-selectin than the 3- and 6-sulfo analogs 8 and 9"}, {"measurement": "relative effectiveness at blocking P-selectin binding (in words)", "setting": "[4]", "value": "the most active"}]}, {"compound": "CO[C@H]1O[C@H](CO)[C@@H](O)[C@H](O)[C@H]1O", "note": "[methyl-α-D-glucopyranoside, reference compound]", "values": [{"measurement": "Inhibiting Dose [carbohydrate residues]", "setting": "[1]; [6]", "value": 0.05, "unit": "M"}]}, {"compound": "CO[C@H]1O[C@H](CO)[C@@H](O)[C@H](O)[C@@H]1O", "note": "[methyl-α-D-mannopyranoside, reference compound]", "values": [{"measurement": "Inhibiting Dose [carbohydrate residues]", "setting": "[1]; Table 3, hemagglutination inhibition assay, mono- and multivalent carbohydrate derivatives", "value": 0.05, "unit": "M"}]}, {"compound": "fucose", "values": [{"measurement": "binding of fucose to Con A (in words)", "setting": "[5]; Goldstein 1976", "value": "does not bind"}]}, {"compound": "mannose", "values": [{"measurement": "binding to Con A (in words), calorimetric data", "setting": "[5]; compared with glucose", "value": "slightly higher affinity"}]}]}
